Measurements: US12616712B2 (LONZA SALES AG, priority 2019, dated 2026)

Tested on: GL261-Luc glioblastoma multiforme
Experiment: syngeneic GL261-Luc glioblastoma multiforme model
Type: in vivo
Settings: mice, control groups, FIG. 7A
Method: The efficacy of exoSTING treatment in a syngeneic GL261-Luc glioblastoma multiforme model was assessed. Briefly, 5×10^5 GL261-LUC cells were administered via a 10 μl intra-striatal stereotactic injection to the mice. Tumor presence was confirmed by T1-weighted (T1W) MRI scan 15 days later. Four days after the MRI scan, when tumors were approximately 80-100 mm^3, stereotactic coordinates were used to administer 5 μl (˜120 ng) ExoSTING every 72 hours for 3 total injections to some of the animals. […] Anti-PDL-1 mAb was dosed twice weekly for 2 weeks (IOmpk IV). Phosphate buffered saline (PBS) alone and Temozolomide (TMZ) alone were dosed twice weekly for 2 weeks (30mpk IP). Mice were then followed for survival end-point.

## Cn1nnc2c(C(N)=O)ncn2c1=O [Temozolamide]
  survival: all animals succumbed to the tumor by day post tumor induction: ~40 days
